Measured values published in ChEMBL document CHEMBL1128107, “Amino acid-derived piperidides as novel CCKB ligands with anxiolytic-like properties” (Bioorg Med Chem Lett, 1995).
Active and inactive are the calls of the source. The calls are words filed in the database; no cut-off is given here.

What was measured:
[1] = target: T1, Cholecystokinin receptor type A (Cavia porcellus, UniProt Q63931); assay: Inhibitory activity towards binding of [125I]Bolton-Hunter-CCK-8 to CCKA receptor in guinea pig pancreatic tissue
T1 sequence (Q63931 whole entry): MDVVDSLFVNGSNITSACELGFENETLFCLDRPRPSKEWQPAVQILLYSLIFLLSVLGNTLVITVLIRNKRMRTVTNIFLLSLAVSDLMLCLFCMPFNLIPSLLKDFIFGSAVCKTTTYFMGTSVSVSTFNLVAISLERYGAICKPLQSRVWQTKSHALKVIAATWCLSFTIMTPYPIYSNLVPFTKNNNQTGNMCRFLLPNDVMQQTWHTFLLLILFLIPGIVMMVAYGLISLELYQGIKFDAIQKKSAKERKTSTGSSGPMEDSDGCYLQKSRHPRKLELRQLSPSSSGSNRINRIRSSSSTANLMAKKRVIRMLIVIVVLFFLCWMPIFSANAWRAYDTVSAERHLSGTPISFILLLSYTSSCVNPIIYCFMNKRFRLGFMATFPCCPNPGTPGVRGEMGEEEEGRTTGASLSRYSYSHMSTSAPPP

Mus musculus [2] = assay: In vivo anxiolytic activity in mouse upon ip administration; significant activity; type: functional, organism-based
NCI-H345 = assay: Ability to block CCK-8-induced calcium mobilization in NCI-H345 cells; type: functional, cell-based; settings: Homo sapiens
Mus musculus [3] = assay: In vivo anxiolytic activity in mouse upon ip administration; less affinity and selectivity; type: functional, organism-based

Row | IC50 [1] [nM] | Structure (SMILES) | also measured
1 | 970 | Cc1cccc(NC(=O)N[C@H](CCC(=O)OCc2ccccc2)C(=O)N2CCC(NC(=O)c3ccccc3)CC2)c1 | 
2 | 5200 | Cc1cccc(NC(=O)N[C@@H](CC(C)C)C(=O)N2CCC(C(=O)c3ccccc3)CC2)c1 | 
3 | 1300 | CC(=O)C1CCN(C(=O)[C@@H](COCc2ccccc2)NC(=O)Nc2cccc(C)c2)CC1 | 
4 | 1800 | Cc1cccc(NC(=O)N[C@H](CCC(=O)O)C(=O)N2CCC(C(=O)c3ccccc3)CC2)c1 | 
5 | 1300 | Cc1cccc(NC(=O)N[C@H](COC(=O)N(C)C)C(=O)N2CCC(C(=O)c3ccccc3)CC2)c1 | 
6 | 1500 | Cc1cccc(NC(=O)N[C@H](COC(=O)N2CCOCC2)C(=O)N2CCC(C(=O)c3ccccc3)CC2)c1 | 
7 | 1300 | Cc1cccc(NC(=O)N[C@H](CC(=O)OCc2ccccc2)C(=O)N2CCC(C(=O)c3ccccc3)CC2)c1 | 
8 | 2500 | CCCC[C@@H](NC(=O)Nc1cccc(C)c1)C(=O)N1CCC(C(=O)c2ccccc2)CC1 | 
9 | 200 | CC(C)C[C@H](NC(=O)[C@H](Cc1c[nH]c2ccccc12)NC(=O)OC(C)(C)C)C(=O)N1CCC(Cc2ccccc2)CC1 | 
10 | 3400 | Cc1cccc(NC(=O)N[C@H](COCc2ccccc2)C(=O)N2CCC(Cc3ccccc3)CC2)c1 | 
11 | 290 | Cc1cccc(NC(=O)N[C@H](COC(=O)Nc2ccccc2)C(=O)N2CCC(C(=O)c3ccccc3)CC2)c1 | 
12 |  | CC1(C)C2CCC1(COC(=O)N[C@](C)(Cc1c[nH]c3ccccc13)C(=O)NC[C@@H](NC(=O)CCC(=O)O)c1ccccc1)CC2 | Activity (Mus musculus [2]): significant activity; IC50 (NCI-H345): 2 nM
13 | 1300 | Cc1cccc(NC(=O)N[C@H](CSCc2ccccc2)C(=O)N2CCC(C(=O)c3ccccc3)CC2)c1 | 
14 | 4500 | CC(C)(C)OC(=O)N[C@@H](Cc1c[nH]c2ccccc12)C(=O)N1CCC(C(=O)c2ccccc2)CC1 | 
15 | 1100 | Cc1cccc(NC(=O)N[C@H](CS(=O)(=O)Cc2ccccc2)C(=O)N2CCC(C(=O)c3ccccc3)CC2)c1 | 
16 | 1400 | Cc1cccc(NC(=O)N[C@H](Cc2c[nH]c3ccccc23)C(=O)N2CCC(C(=O)c3ccccc3)CC2)c1 | 
17 | 690 | Cc1cccc(NC(=O)N[C@H](CCC(=O)OCc2ccccc2)C(=O)N2CCC(C(=O)Nc3ccccc3)CC2)c1 | 

Row | IC50 [1] [nM] | Structure (SMILES) | also measured
18 | 1800 | Cc1cccc(NC(=O)N[C@H](CCCc2ccccc2)C(=O)N2CCC(C(=O)c3ccccc3)CC2)c1 | 
19 | 2000 | Cc1cccc(NC(=O)N[C@H](CC(C)C)C(=O)N2CCC(C(=O)c3ccccc3)CC2)c1 | 
20 | 1700 | CC(Cc1c[nH]c2ccccc12)(NC(=O)OC1[C@H]2C[C@@H]3C[C@@H](C[C@H]1C3)C2)C(=O)N1CCC(C(=O)c2ccccc2)CC1 (stereo partly specified) | 
21 | > 2100 | CC(C)C[C@H](NC(=O)OC(C)(C)C)C(=O)N1CCC(C(=O)c2ccccc2)CC1 | 
22 | 2200 | Cc1cccc(NC(=O)N[C@H](CCc2ccccc2)C(=O)N2CCC(C(=O)c3ccccc3)CC2)c1 | 
23 | 1300 | Cc1cccc(NC(=O)N[C@@H](C(=O)N2CCC(C(=O)c3ccccc3)CC2)[C@@H](C)OCc2ccccc2)c1 | 
24 | 2400 | Cc1cccc(NC(=O)N[C@H](COCc2ccccc2)C(=O)N2CCC(C(=O)c3ccccc3)CC2)c1 | 
25 | 1900 | Cc1cccc(NC(=O)N[C@H](CCC(=O)N2CCCC2)C(=O)N2CCC(C(=O)c3ccccc3)CC2)c1 | Activity (Mus musculus [3]): Weak activity; IC50 (NCI-H345): 251 nM
26 | 420 | Cc1cccc(NC(=O)N[C@H](COCc2ccccc2)C(=O)N2CCC(C(=O)c3ccc(F)cc3)CC2)c1 | 
27 | 1500 | Cc1cccc(NC(=O)N[C@H](CCC(=O)OCc2ccccc2)C(=O)N2CCN(C(=O)c3ccccc3)CC2)c1 | 
28 | 800 | Cc1cccc(NC(=O)N[C@H](C[S+]([O-])Cc2ccccc2)C(=O)N2CCC(C(=O)c3ccccc3)CC2)c1 (stereo partly specified) | 
29 | 2200 | Cc1cccc(NC(=O)N[C@H](COCc2ccccc2)C(=O)N2CCCC(C(=O)Nc3ccccc3)C2)c1 (stereo partly specified) | 
30 | 500 | Cc1cccc(NC(=O)N[C@H](COCc2ccccc2)C(=O)N2CCC(C(=O)Nc3ccccc3)CC2)c1 | 
31 | 250 | Cc1cccc(NC(=O)N[C@H](COC(=O)N2CCCC2)C(=O)N2CCC(C(=O)Nc3ccccc3)CC2)c1 | Activity (Mus musculus [2]): Active; IC50 (NCI-H345): 115 nM
32 | 1400 | Cc1cccc(NC(=O)N[C@H](COC(=O)N2CCCC2)C(=O)N2CCC(C(=O)c3ccccc3)CC2)c1 | Activity (Mus musculus [2]): Active; IC50 (NCI-H345): 220 nM
33 | 640 | CC(C)C[C@H](NC(=O)[C@H](Cc1c[nH]c2ccccc12)NC(=O)OC(C)(C)C)C(=O)N1CCC(C(=O)c2ccccc2)CC1 | 
34 | 900 | Cc1cccc(NC(=O)N[C@H](CCC(=O)OCc2ccccc2)C(=O)N2CCC(C(=O)c3ccccc3)CC2)c1 | 
